Laboratory results: PMC12257073 (Cancer Research Communications, 2025)

Assay: Adverse events (treatment-related and all-cause) and dose-limiting toxicities, NCI CTCAE version 4.0
Settings: all-cause adverse events
[1] = Group 1, Skin and subcutaneous tissue disorders

Experimental: The phase 1b portion of the study used a standard 3 + 3 dose-escalation design with a starting dose level 1 (DL1) of 37 mg oral daily TP-0903 (Supplementary Table S2) based on experience with 50 mg oral daily as a single agent in patients with solid tumors ([25]). Dose-limiting toxicities (DLT) were evaluated to establish the dose brought forward for an expansion cohort (phase 2). Seven patients were enrolled in the phase 1b study, which was completed in January 2021 with the decision to move forward with an expansion cohort of 37 mg oral daily. Across the phase 1b and phase 2 studies, 15 patients were enrolled and started on 37 mg TP-0903 oral daily on days 1 to 21 (group 1). […] One additional patient was enrolled at this time but was inadvertently started on 25 mg TP-0903 oral daily on days 1 to 21. […] In May 2021, an amendment was approved to allow enrollment of a new group 2 at 25mg oral daily on days 1 to 21 of TP-0903 (DL-1) in stage 2 of the phase 2 study.
Clinical response was assessed according to the modified 2017 European LeukemiaNet AML criteria ([26]). The primary endpoint was achievement of CR within six cycles of therapy. Secondary endpoints included toxicity, duration of response, OS, and the proportion of eligible patients who effectively transitioned to allogeneic stem cell transplantation. Exploratory endpoints included pharmacokinetics (PK), correlative genetic, and biochemical data; correlations between morphologic remission, spectral flow cytometry, and mutational remission; and duration of remission or survival. […] Adverse events (AE) were graded according to the NCI Common Terminology Criteria for Adverse Events version 4.0 ([27]).

With `CN1CCN(Cc2ccc(Nc3ncc(Cl)c(Nc4ccccc4S(=O)(=O)N(C)C)n3)cc2)CC1.O=C(O)C(O)C(O)C(=O)O.O=C(O)C(O)C(O)C(=O)O` [TP-0903, 2-(5-chloro-2-(4-((4-methylpiperazin-1-yl)methyl)phenylamino)pyrimidin-4-yl)amino-N,N-dimethylbenzene-1-sulfonamide di-tartrate salt] the “Atrial fibrillation with RVR, All” value (Group 1, Missing Categories) was 0 (0), the “Atrial fibrillation with RVR, Grade 1 2” value (Group 1, Missing Categories) was 0 (0) and the “Atrial fibrillation with RVR, Grade 3+” value (Group 1, Missing Categories) was 0 (0). For the same molecule, the “COPD exacerbation, All” value (Group 1, Missing Categories) was 1 (6.7), the “COPD exacerbation, Grade 1 2” value (Group 1, Missing Categories) was 1 (6.7) and the “COPD exacerbation, Grade 3+” value (Group 1, Missing Categories) was 0 (0). The “Chest pain (non-cardiac), All” value (Group 1, Missing Categories) was 0 (0), the “Chest pain (non-cardiac), Grade 1 2” value (Group 1, Missing Categories) was 0 (0) and the “Chest pain (non-cardiac), Grade 3+” value (Group 1, Missing Categories) was 0 (0). For the same molecule, the “Death, NOS, All” value (Group 1, Missing Categories) was 1 (6.7), the “Death, NOS, Grade 1 2” value (Group 1, Missing Categories) was 0 (0) and the “Death, NOS, Grade 3+” value (Group 1, Missing Categories) was 1 (6.7). For the same molecule, the “Diarrhea (intermittent), All” value (Group 1, Missing Categories) was 0 (0), the “Diarrhea (intermittent), Grade 1 2” value (Group 1, Missing Categories) was 0 (0) and the “Diarrhea (intermittent), Grade 3+” value (Group 1, Missing Categories) was 0 (0). The “Hand-Foot Syndrome, All” value (Group 1, Missing Categories) was 1 (6.7), the “Hand-Foot Syndrome, Grade 1 2” value (Group 1, Missing Categories) was 1 (6.7) and the “Hand-Foot Syndrome, Grade 3+” value (Group 1, Missing Categories) was 0 (0). The “Hip Pain, All” value (Group 1, Missing Categories) was 1 (6.7), the “Hip Pain, Grade 1 2” value (Group 1, Missing Categories) was 1 (6.7) and the “Hip Pain, Grade 3+” value (Group 1, Missing Categories) was 0 (0). The “Hypokalemia (intermittent), All” value (Group 1, Missing Categories) was 0 (0), the “Hypokalemia (intermittent), Grade 1 2” value (Group 1, Missing Categories) was 0 (0) and the “Hypokalemia (intermittent), Grade 3+” value (Group 1, Missing Categories) was 0 (0). The “Hypotension (intermittent), All” value (Group 1, Missing Categories) was 0 (0), the “Hypotension (intermittent), Grade 1 2” value (Group 1, Missing Categories) was 0 (0) and the “Hypotension (intermittent), Grade 3+” value (Group 1, Missing Categories) was 0 (0). For the same molecule, the “INR - Increased, All” value (Group 1, Missing Categories) was 1 (6.7), the “INR - Increased, Grade 1 2” value (Group 1, Missing Categories) was 1 (6.7) and the “INR - Increased, Grade 3+” value (Group 1, Missing Categories) was 0 (0). For the same molecule, the “Inflammation (bilateral knee), All” value (Group 1, Missing Categories) was 0 (0), the “Inflammation (bilateral knee), Grade 1 2” value (Group 1, Missing Categories) was 0 (0) and the “Inflammation (bilateral knee), Grade 3+” value (Group 1, Missing Categories) was 0 (0). The “Itching (intermittent), All” value (Group 1, Missing Categories) was 0 (0), the “Itching (intermittent), Grade 1 2” value (Group 1, Missing Categories) was 0 (0) and the “Itching (intermittent), Grade 3+” value (Group 1, Missing Categories) was 0 (0). The “Microvascular ischemic disease, All” value (Group 1, Missing Categories) was 0 (0), the “Microvascular ischemic disease, Grade 1 2” value (Group 1, Missing Categories) was 0 (0) and the “Microvascular ischemic disease, Grade 3+” value (Group 1, Missing Categories) was 0 (0). For the same molecule, the “Pain (leg), All” value (Group 1, Missing Categories) was 0 (0), the “Pain (leg), Grade 1 2” value (Group 1, Missing Categories) was 0 (0) and the “Pain (leg), Grade 3+” value (Group 1, Missing Categories) was 0 (0). The “Retinal Detachment, All” value (Group 1, Missing Categories) was 1 (6.7), the “Retinal Detachment, Grade 1 2” value (Group 1, Missing Categories) was 1 (6.7) and the “Retinal Detachment, Grade 3+” value (Group 1, Missing Categories) was 0 (0). The “Steroid-induced hyperglycemia, All” value (Group 1, Missing Categories) was 0 (0), the “Steroid-induced hyperglycemia, Grade 1 2” value (Group 1, Missing Categories) was 0 (0) and the “Steroid-induced hyperglycemia, Grade 3+” value (Group 1, Missing Categories) was 0 (0). The “Symptomatic anemia, All” value (Group 1, Missing Categories) was 0 (0), the “Symptomatic anemia, Grade 1 2” value (Group 1, Missing Categories) was 0 (0) and the “Symptomatic anemia, Grade 3+” value (Group 1, Missing Categories) was 0 (0). For the same molecule, the “lung fullness, All” value (Group 1, Missing Categories) was 1 (6.7), the “lung fullness, Grade 1 2” value (Group 1, Missing Categories) was 1 (6.7) and the “lung fullness, Grade 3+” value (Group 1, Missing Categories) was 0 (0). For the same molecule, the “neuropathy (BLE), All” value (Group 1, Missing Categories) was 0 (0), the “neuropathy (BLE), Grade 1 2” value (Group 1, Missing Categories) was 0 (0) and the “neuropathy (BLE), Grade 3+” value (Group 1, Missing Categories) was 0 (0). For the same molecule, the “pericarditis (intermittent), All” value (Group 1, Missing Categories) was 0 (0), the “pericarditis (intermittent), Grade 1 2” value (Group 1, Missing Categories) was 0 (0) and the “pericarditis (intermittent), Grade 3+” value (Group 1, Missing Categories) was 0 (0). For the same molecule, the “Dry skin, All” value [1] was 1 (6.7), the “Dry skin, Grade 1 2” value [1] was 1 (6.7) and the “Dry skin, Grade 3+” value [1] was 0 (0). The “Ecchymosis, All” value [1] was 1 (6.7), the “Ecchymosis, Grade 1 2” value [1] was 1 (6.7) and the “Ecchymosis, Grade 3+” value [1] was 0 (0). For the same molecule, the “Erythema nodosum, All” value [1] was 0 (0), the “Erythema nodosum, Grade 1 2” value [1] was 0 (0) and the “Erythema nodosum, Grade 3+” value [1] was 0 (0). For the same molecule, the “Erythema, All” value [1] was 1 (6.7), the “Erythema, Grade 1 2” value [1] was 1 (6.7) and the “Erythema, Grade 3+” value [1] was 0 (0). For the same molecule, the “Hyperhidrosis, All” value [1] was 0 (0), the “Hyperhidrosis, Grade 1 2” value [1] was 0 (0) and the “Hyperhidrosis, Grade 3+” value [1] was 0 (0). For the same molecule, the “Nail discolouration, All” value [1] was 1 (6.7), the “Nail discolouration, Grade 1 2” value [1] was 1 (6.7) and the “Nail discolouration, Grade 3+” value [1] was 0 (0). For the same molecule, the “Petechiae, All” value [1] was 0 (0), the “Petechiae, Grade 1 2” value [1] was 0 (0) and the “Petechiae, Grade 3+” value [1] was 0 (0). The “Photosensitivity reaction, All” value [1] was 1 (6.7), the “Photosensitivity reaction, Grade 1 2” value [1] was 1 (6.7) and the “Photosensitivity reaction, Grade 3+” value [1] was 0 (0). The “Pruritus, All” value [1] was 1 (6.7), the “Pruritus, Grade 1 2” value [1] was 1 (6.7) and the “Pruritus, Grade 3+” value [1] was 0 (0). For the same molecule, the “Rash papular, All” value [1] was 0 (0), the “Rash papular, Grade 1 2” value [1] was 0 (0) and the “Rash papular, Grade 3+” value [1] was 0 (0). The “Rash, All” value [1] was 1 (6.7), the “Rash, Grade 1 2” value [1] was 1 (6.7) and the “Rash, Grade 3+” value [1] was 0 (0). The “Scab, All” value [1] was 0 (0), the “Scab, Grade 1 2” value [1] was 0 (0) and the “Scab, Grade 3+” value [1] was 0 (0). The “Skin disorder, All” value [1] was 1 (6.7), the “Skin disorder, Grade 1 2” value [1] was 1 (6.7) and the “Skin disorder, Grade 3+” value [1] was 0 (0). For the same molecule, the “Skin lesion, All” value [1] was 0 (0), the “Skin lesion, Grade 1 2” value [1] was 0 (0) and the “Skin lesion, Grade 3+” value [1] was 0 (0). For the same molecule, the “Swelling face, All” value [1] was 0 (0), the “Swelling face, Grade 1 2” value [1] was 0 (0) and the “Swelling face, Grade 3+” value [1] was 0 (0). The “Hypertension, All” value (Group 1, Vascular disorders) was 1 (6.7), the “Hypertension, Grade 1 2” value (Group 1, Vascular disorders) was 0 (0) and the “Hypertension, Grade 3+” value (Group 1, Vascular disorders) was 1 (6.7). The “Hypotension, All” value (Group 1, Vascular disorders) was 3 (20), the “Hypotension, Grade 1 2” value (Group 1, Vascular disorders) was 2 (13.3) and the “Hypotension, Grade 3+” value (Group 1, Vascular disorders) was 1 (6.7). The “Lymphoedema, All” value (Group 1, Vascular disorders) was 0 (0), the “Lymphoedema, Grade 1 2” value (Group 1, Vascular disorders) was 0 (0) and the “Lymphoedema, Grade 3+” value (Group 1, Vascular disorders) was 0 (0). The “Peripheral venous disease, All” value (Group 1, Vascular disorders) was 0 (0), the “Peripheral venous disease, Grade 1 2” value (Group 1, Vascular disorders) was 0 (0) and the “Peripheral venous disease, Grade 3+” value (Group 1, Vascular disorders) was 0 (0). For the same molecule, the “Atrial fibrillation with RVR, All” value (Group 2, Missing Categories) was 1 (8.3), the “Atrial fibrillation with RVR, Grade 1 2” value (Group 2, Missing Categories) was 1 (8.3) and the “Atrial fibrillation with RVR, Grade 3+” value (Group 2, Missing Categories) was 0 (0). For the same molecule, the “COPD exacerbation, All” value (Group 2, Missing Categories) was 0 (0), the “COPD exacerbation, Grade 1 2” value (Group 2, Missing Categories) was 0 (0) and the “COPD exacerbation, Grade 3+” value (Group 2, Missing Categories) was 0 (0). The “Chest pain (non-cardiac), All” value (Group 2, Missing Categories) was 1 (8.3), the “Chest pain (non-cardiac), Grade 1 2” value (Group 2, Missing Categories) was 1 (8.3) and the “Chest pain (non-cardiac), Grade 3+” value (Group 2, Missing Categories) was 0 (0). The “Death, NOS, All” value (Group 2, Missing Categories) was 0 (0), the “Death, NOS, Grade 1 2” value (Group 2, Missing Categories) was 0 (0) and the “Death, NOS, Grade 3+” value (Group 2, Missing Categories) was 0 (0). For the same molecule, the “Diarrhea (intermittent), All” value (Group 2, Missing Categories) was 1 (8.3), the “Diarrhea (intermittent), Grade 1 2” value (Group 2, Missing Categories) was 1 (8.3) and the “Diarrhea (intermittent), Grade 3+” value (Group 2, Missing Categories) was 0 (0). The “Hand-Foot Syndrome, All” value (Group 2, Missing Categories) was 0 (0), the “Hand-Foot Syndrome, Grade 1 2” value (Group 2, Missing Categories) was 0 (0) and the “Hand-Foot Syndrome, Grade 3+” value (Group 2, Missing Categories) was 0 (0). The “Hip Pain, All” value (Group 2, Missing Categories) was 0 (0), the “Hip Pain, Grade 1 2” value (Group 2, Missing Categories) was 0 (0) and the “Hip Pain, Grade 3+” value (Group 2, Missing Categories) was 0 (0). The “Hypokalemia (intermittent), All” value (Group 2, Missing Categories) was 1 (8.3), the “Hypokalemia (intermittent), Grade 1 2” value (Group 2, Missing Categories) was 1 (8.3) and the “Hypokalemia (intermittent), Grade 3+” value (Group 2, Missing Categories) was 0 (0).
